# Experiment: gradient 5% acetonitrile 3 min, to 50% in 2 min, to 85% in 15 min, held 3 min, 100 µL/min
# Details: column: Zorbax Extend-C18 2.1 x 50 mm; eluents: water / acetonitrile, 0.1% formic acid
# Summary of the method: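 In both positive and negative ionization mode, a quadrupole time-of-flight mass spectrometer coupled to HPLC analyzed pure standards run in mixtures of ~100 molecules. The Zorbax Extend-C18 column (2.1 × 50 mm, 1.8 μm) was operated at 100 μL/min with water and acetonitrile, each containing 0.1% formic acid. The dead volume was 40 μL and the dwell volume 900 μL. Retention time came from adduct peaks that were computationally picked and individually inspected by hand.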
row,SMILES,RP-LC retention time [s]
1,COc1ccc(-n2nc(C(F)(F)F)cc2-c2ccc(Cl)cc2)cc1,1250
2,O=C(Nc1ccc2c(c1)CN(C(=O)c1cc(C3CC3)[nH]n1)CCO2)C1CC1,696
3,Cc1nc2cc(-c3noc(C4CC(=O)N(c5cccc(Cl)c5)C4)n3)ccc2o1 (centres undefined),958
4,COc1ccc(Cl)cc1NS(=O)(=O)c1cc(-c2[nH]ncc2C(=O)N(C)C)oc1C,716
5,Cn1nc(-c2nnc(-c3ccccc3F)o2)c2c1CCN(S(=O)(=O)c1ccc(F)c(Cl)c1)C2,990
6,COc1ccc(CN2CC(=O)N(c3cccc(C)c3)[C@@H]3CS(=O)(=O)C[C@@H]32)cc1,788
7,COc1cc(-c2noc(Cc3nnc(-c4cc(F)cc(F)c4)o3)n2)cc(OC)c1OC,968
8,CCOC(=O)C1=C(C)NC(=O)NC1c1ccc(-c2cccc([N+](=O)[O-])c2)o1 (centres undefined),761
9,CCC(C)NC(=O)c1cnn(-c2ccc(-c3nc(C(C)C)no3)cn2)c1C (centres undefined),1000
10,O=C1NC2(CCN(C(=O)c3ccc(F)c(F)c3)CC2)Nc2c(Cl)cccc21,777
11,O=C(c1ccoc1)N1CCCCC1c1nncn1Cc1ccccc1 (centres undefined),689
12,O=C(C1CCCCC1)N1CCN(CC(F)(F)F)CC1,796
13,CCC(=O)N(C1CCOCC1)C1CCN(S(=O)(=O)c2ccc(F)cc2)CC1,792
14,Cc1noc([C@@H]2CC(F)(F)CN2C(=O)c2nccn2C)n1,701
15,Cc1c(C(=O)N2CCCC2)cnn1-c1ncccc1-c1nc(C2CC2)no1,706
16,C=CCn1nnnc1SCC(=O)Nc1ccc(C(=O)OC)cc1,701
17,CSc1ccc(-c2noc(Cn3c(=O)n(-c4cccc(F)c4)c(=O)c4sccc43)n2)cc1,1040
18,Cc1ccc(Nc2c(-c3ccc4c(c3)OCO4)nc3cnccn23)c(Br)c1,1000
19,CCSc1ccccc1C(=O)N1CCN(CCn2cccn2)CC1,568
20,COc1ccc(-c2ccc3ncc4c(c3c2)n(-c2ccc(N3CCNCC3)c(C(F)(F)F)c2)c(=O)n4C)cn1,630
21,Cc1ccc([N+](=O)[O-])cc1NC(=O)Cc1cc(-c2ccc(F)cc2)on1,896
22,O=C(c1cnc2n(c1=O)CCS2)N1CCN(c2ccc([N+](=O)[O-])cc2)CC1,635
23,CC[C@H](C)[C@H](NC(=O)N1C[C@@H]2C[C@@H](C1)c1cccc(=O)n1C2)C(=O)O,598

row,SMILES,RP-LC retention time [s]
1,O=c1cc(-c2ccccc2)nc2n1CCN2Cc1ccncc1,589
2,CCCCCCOC(=O)[C@@]1(O)CC2O[C@]1(C)n1c3ccccc3c3c4c(c5c6ccccc6n2c5c31)C(=O)NC4,1230
3,O=C(Nc1ccc2c(c1)OCCO2)C1CCCN(C(=O)c2cc(-c3ccccn3)n[nH]2)C1 (centres undefined),656
4,CN1C[C@H](C(=O)N[C@]2(C)O[C@@]3(O)[C@@H]4CCCN4C(=O)[C@H](Cc4ccccc4)N3C2=O)CC2c3cccc4[nH]cc(c34)C[C@H]21 (some centres undefined),683
5,Cc1ccc2nc(-c3ccccc3)c(Nc3ccccc3C)n2c1,726
6,CC1(c2cccc3ccccc23)OC(=O)c2ccccc21 (centres undefined),1030
7,CCCOc1nccnc1N1CCC(NC(=O)Cc2cccnc2)C1 (centres undefined),671
8,Cn1cnnc1SCC(=O)Nc1ccc(F)cc1,603
9,N#CCn1nc2n(c1=O)CCN(C(=O)c1cc(C3CC3)[nH]n1)CC2,595
10,CCS(=O)(=O)Nc1ccc(C2(C(=O)NCc3cccs3)CCCCC2)cc1,913
11,Cc1cc(N2CCN(C(=O)Nc3ccc(F)c(Cl)c3)CC2)nc(N2CCCC2)n1,701
12,O=C(NC1(c2nc(-c3ccncc3)no2)CCCCC1)c1ccc(C(F)(F)F)cc1,1030
13,COc1ccc(C2(C(=O)N3CCC4(CC3)c3nccn3-c3ccccc3CN4C)CC2)cc1,630
14,COCC(C)(O)CNC(=O)c1ccco1 (centres undefined),549
15,Cc1nnc(-c2c(S(=O)(=O)NC3CCCCC3)c(C)n(C)c2C)o1,814
16,CCOc1ccc(-c2cc(C(=O)N3CCN(c4ccccn4)CC3)c3ccccc3n2)cc1,726
17,CCOc1ccc(-c2cc3c(=O)n(Cc4nc(-c5ccc(OCC)c(OC)c5)no4)ncn3n2)cc1,1150
18,CC(C)CNc1nc(-c2ccc([N+](=O)[O-])cc2)nc2ccccc12,821
19,Cc1cccc(Sc2nccnc2N2CCCC(C(=O)Nc3ccc(Br)cc3)C2)c1 (centres undefined),1290
20,O=C(Cc1ccc(Cl)cc1)N1CCN(c2cnn3cnnc3c2)CC1,656
21,CN1CCN(CC/C=C2/c3ccccc3Sc3ccc(S(=O)(=O)N(C)C)cc32)CC1,752
22,CCSc1nc2ccc(NS(=O)(=O)c3ccc(F)cc3F)cc2s1,1020
23,Cc1ccc(CNC(=O)Cn2nc3c4ccc(Cl)cc4ncn3c2=O)cc1,753

row,SMILES,RP-LC retention time [s]
1,Cn1nnc2cc(CNC(=O)c3cccc(Cl)c3)ccc21,715
2,O=C(C1CCCN(S(=O)(=O)N2CCCCC2)C1)N1CCN(Cc2ccc3c(c2)OCO3)CC1 (centres undefined),679
3,CCn1ccc(C(=O)N2CC(n3ccnc3C(C)C)C2)n1,566
4,Cc1ccc(C)c(-c2csc3c(=O)n(CC(=O)OC(C)(C)C)cnc23)c1,1110
5,O=C(Nc1ccccc1C(F)(F)F)N1CCC(N2CCN(Cc3cccc(F)c3)C(=O)C2=O)CC1,829
6,CCn1nccc1C(=O)Nc1ccc2c(c1)CCC(=O)N2C,644
7,O=C(NC1CCCC1)c1nnc(-c2ccc(S(=O)(=O)N3CCOCC3)cc2)o1,804
8,CC1(C(=O)NCc2ccc(F)cc2)Cn2cnc(C(=O)NCc3ccccc3F)c2C(=O)N1C1CC1 (centres undefined),751
9,O=C(NC1CCCCCCC1)C1CCN(C(=O)c2cc(-c3ccncc3)n[nH]2)CC1,648
10,Cc1ccc2c(=O)c3c([nH]c2c1C)CCN(CC(=O)NCc1ccccc1F)C3,621
11,CCc1ccc(Nc2nc(C(=O)NC3CC3)nc3ccccc23)cc1,791
12,CN(CC1CCOC1)C(=O)Nc1ccccc1 (centres undefined),653
13,Cc1ccc(NC(=O)N2CCC(n3c(-c4ccoc4)nc4cccnc43)C2)cc1F (centres undefined),774
14,Cc1ccccc1-n1ncc2c(NCc3ccco3)ncnc21,708
15,CCC(C)C(NC(=O)c1cc(F)cc(F)c1)C(=O)Nc1nc2ccccc2[nH]1 (centres undefined),787
16,CC1=NS(=O)(=O)N(C)C=C1C(=O)OCc1cccc(Cl)c1,968
17,Cc1ccsc1C(=O)N1CCc2nn(C)c(=O)n2CC1,610
18,C=CCN1C(=O)COc2ccc(-c3nc(NC(=O)CC)sc3C)cc21,846
19,O=C(NC1CC1)c1ccccc1OCC1CCN(C(=O)c2ccc(F)cc2)CC1,805
20,Cn1nc2n(c1=O)CCC(NS(=O)(=O)c1cccnc1)CC2 (centres undefined),579
21,O=C(CN1CCC2(CC1)N=C(c1ccc(Cl)cc1)C(=O)N2)NCc1ccc2c(c1)OCO2,680
22,COc1cc(NC(C)=O)c(Cl)cc1C(=O)NCCc1c[nH]c2ccc(C)cc12,831
23,CCc1ccc(-c2csc(Nc3ccccn3)n2)cc1,1040

row,SMILES,RP-LC retention time [s]
1,CCn1c(=O)n(CC(=O)NCCN2CCCCC2C)c(=O)c2cnc(-c3ccc(Cl)cc3)nc21 (centres undefined),751
2,Cc1ccc(CN2CC(Cn3c(C)cnc3-c3ccncc3)C2)o1,611
3,O=C(Cn1c(=O)c2cccn2c2ccccc21)NCCCc1ccccc1,874
4,Cc1ccccc1-c1nc2cnccn2c1NCCC(=O)NCc1ccccc1,669
5,COc1ccc(NC(=O)Cn2nc3c(Oc4ccc(Cl)cc4)nccn3c2=O)cc1,832
6,Cn1nc(CNC(=O)COc2ccc(Cl)cc2)c2ccccc21,853
7,CCc1cc(C2CCCN2C(=O)Nc2ccc(Cl)cc2)on1 (centres undefined),890
8,O=C(c1ccsc1)N1CCC2(CC1)NC(=O)N(Cc1cccc(Cl)c1)C2=O,816
9,O=C(N[C@H]1C[C@@H]2C[C@H]1CN2C(=O)Nc1ccc2c(c1)OCCO2)c1ccccc1,937
10,CCOc1ccc(-c2nc(C3CC(=O)N(c4ccc(F)cc4)C3)no2)cc1 (centres undefined),1010
11,O=C(Nc1nc(-c2ccco2)cs1)C1COCC(=O)N1Cc1ccccc1 (centres undefined),729
12,CCC(C(=O)NCc1ccccn1)n1c2ccccc2c2cnn(C)c(=O)c21 (centres undefined),634
13,COc1ccc(C(=O)CSc2nnnn2-c2cccc(C)c2)cc1,941
14,O=C(NCC1CCOCC1)c1cccc(Br)c1,733
15,O=C(CCn1nnc2ccccc2c1=O)NCC1CCS(=O)(=O)C1 (centres undefined),585
16,CCc1onc(C)c1C1CCCN1C(=O)Nc1ccccc1OC (centres undefined),825
17,CCc1nn2c(CNS(=O)(=O)c3cc(C)ccc3C)c(-c3ccccc3)nc2s1,986
18,CCC(C(=O)NC(C)C)n1nc(C)c2nn(-c3ccccc3)c(C)c2c1=O (centres undefined),831
19,Cc1ccc2oc(-c3noc(C(=O)NCc4ccc5c(c4)OCO5)n3)c(C)c2c1,1120
20,O=C(Cc1ccccc1)N1CCCCC1c1nc(-c2cnccn2)no1 (centres undefined),812
